In the assay the test system is MDA-231 cancer cells. The assay is described as follows: Inhibition of proliferation assay: cell confluence (IncuCyte imaging). It is filed as cell-based. As to conditions: compound at 10 uM; MDA-231 cells; IncuCyte images every 3 h over 4-5 d; relative confluence normalised to time zero. An excerpt:
Inhibition of Proliferation Assay
The confluence value is a surrogate for cell proliferation and growth. The value is expressed as a percent confluence, which represents the fraction of culture dish-surface that is occupied by cells. As the number of cells in the dish increases over time due to proliferation, so will their coverage of that surface increase. Expansion of the cell population on the cell culture-dish surface and confluence have mostly a linear relationship until the cells on the plate surface begin to reach saturation or maximum density.
Confluence is determined based on image analysis. Image based software can identify objects in the image field base on changes to pixel density in a grey scale image. The software can then assign a mask to those pixels within the object. Objects can be ‘gated’ out based on size and shape. To determine cell confluence, images of cells are first masked as objects. The surface area of the image that is masked is measured and compared to the total surface area of the culture dish surface to obtain a percent confluence.
MDA-231 cancer cells were obtained from ATCC. Cells were cultured in Dulbecco's Modified Eagle Medium (DMEM) supplemented with 10% Fetal Bovine Serum (FBS), 2 mM Glutamax, 1 mM Non Essential Amino Acid (NEAA) solution and 1 mM sodium pyruvate. […] Final DMSO concentrations were […]. Images were acquired with an IncuCyte Live Cell Imaging microscopy (Essen Bioscience) at every 3 h under cell culture conditions with 10× objective over 4-5 d. Cell confluence was calculated from one field of view per well using the IncuCyte in-built algorithm. Relative confluence values were obtained by normalising each value to the time zero value in each sample.

The values that follow come from US11427606B2, “Azithromycin derivatives containing a phosphonium ion as anticancer agents” (Rising Tide Foundation, priority 2017, dated 2022).

In the case of `CC[C@H]1OC(=O)[C@H](C)[C@@H](O[C@H]2C[C@@](C)(OC)[C@@H](O)[C@H](C)O2)[C@H](C)[C@@H](O[C@@H]2O[C@H](C)C[C@H](N(C)C)[C@H]2O)[C@](C)(O)C[C@@H](C)CN(CCCCCCCCCC[P+](c2ccc(OC)cc2)(c2ccc(OC)cc2)c2ccc(OC)cc2)[C@H](C)[C@@H](O)[C@]1(C)O.[I-]` [Example 15], the “% Confluence” value is on record as 16.6%.

Regarding `CC[C@H]1OC(=O)[C@H](C)[C@@H](O[C@H]2C[C@@](C)(OC)[C@@H](O)[C@H](C)O2)[C@H](C)[C@@H](O[C@@H]2O[C@H](C)C[C@H](N(C)C)[C@H]2O)[C@](C)(O)C[C@@H](C)CN(C(=O)CCCCCCC[P+](c2cc(C)cc(C)c2)(c2cc(C)cc(C)c2)c2cc(C)cc(C)c2)[C@H](C)[C@@H](O)[C@]1(C)O` [Example 16, {8-[(2R,3S,4R,5R,8R,10R,11R,12S,13S,14R)-11-{[(2S,3R,4S,6R)-4-(dimethylamino)-3-hydroxy-6-methyloxan-2-yl]oxy}-2-ethyl-3,4,10-trihydroxy-13-{[(2R,4R,5S,6S)-5-hydroxy-4-methoxy-4,6-dimethyloxan-2-yl]oxy}-3,5,8,10,12,14-hexamethyl-15-oxo-1-oxa-6-azacyclopentadecan-6-yl]-8-oxooctyl}tris(3,5-dimethylphenyl)phosphonium hexafluorophosphate(V)], the “% Confluence” value was 10%.

As for `CC[C@H]1OC(=O)[C@H](C)[C@@H](O[C@H]2C[C@@](C)(OC)[C@@H](O)[C@H](C)O2)[C@H](C)[C@@H](O[C@@H]2O[C@H](C)C[C@H](N(C)C)[C@H]2O)[C@](C)(O)C[C@@H](C)CN(C(=O)CCCCCCC[P+](c2ccccc2)(c2ccccc2)c2ccccc2CN(C)C)[C@H](C)[C@@H](O)[C@]1(C)O` [Example 17, {8-[(2R,3S,4R,5R,8R,10R,11R,12S,13S,14R)-11-{[(2S,3R,4S,6R)-4-(dimethylamino)-3-hydroxy-6-methyloxan-2-yl]oxy}-2-ethyl-3,4,10-trihydroxy-13-{[(2R,4R,5S,6S)-5-hydroxy-4-methoxy-4,6-dimethyloxan-2-yl]oxy}-3,5,8,10,12,14-hexamethyl-15-oxo-1-oxa-6-azacyclopentadecan-6-yl]-8-oxooctyl}({2-[(dimethylamino)methyl]phenyl})diphenylphosphonium hexafluorophosphate(V)], the “% Confluence” value was determined as 93.1%.

On to `CC[C@H]1OC(=O)[C@H](C)[C@@H](O[C@H]2C[C@@](C)(OC)[C@@H](O)[C@H](C)O2)[C@H](C)[C@@H](O[C@@H]2O[C@H](C)C[C@H](N(C)C)[C@H]2O)[C@](C)(O)C[C@@H](C)CN(C(=O)CCCCCCC[P+](c2ccccc2)(c2ccccc2)c2ccccc2-c2ccccc2)[C@H](C)[C@@H](O)[C@]1(C)O` [Example 18, {[1,1′-biphenyl]-2-yl}({8-[(2R,3S,4R,5R,8R,10R,11R,12S,13S,14R)-11-{[(2S,3R,4S,6R)-4-(dimethylamino)-3-hydroxy-6-methyloxan-2-yl]oxy}-2-ethyl-3,4,10-trihydroxy-13-{[(2R,4R,5S,6S)-5-hydroxy-4-methoxy-4,6-dimethyloxan-2-yl]oxy}-3,5,8,10,12,14-hexamethyl-15-oxo-1-oxa-6-azacyclopentadecan-6-yl]-8-oxooctyl})diphenylphosphonium hexafluorophosphate(V)], for which the “% Confluence” value is 7.7%.

As for `CC[C@H]1OC(=O)[C@H](C)[C@@H](O[C@H]2C[C@@](C)(OC)[C@@H](O)[C@H](C)O2)[C@H](C)[C@@H](O[C@@H]2O[C@H](C)C[C@H](N(C)C)[C@H]2O)[C@](C)(O)C[C@@H](C)CN(C(=O)CCCCCCC[P+](c2ccccc2)(c2ccccc2)c2ccc(N(C)C)cc2)[C@H](C)[C@@H](O)[C@]1(C)O` [Example 19, {8-[(2R,3S,4R,5R,8R,10R,11R,12S,13S,14R)-11-{[(2S,3R,4S,6R)-4-(dimethylamino)-3-hydroxy-6-methyloxan-2-yl]oxy}-2-ethyl-3,4,10-trihydroxy-13-{[(2R,4R,5S,6S)-5-hydroxy-4-methoxy-4,6-dimethyloxan-2-yl]oxy}-3,5,8,10,12,14-hexamethyl-15-oxo-1-oxa-6-azacyclopentadecan-6-yl]-8-oxooctyl}[4-(dimethylamino)phenyl]diphenylphosphonium hexafluorophosphate(V)], the “% Confluence” value is given as 10.5%.
